Measured values reported in PubChem BioAssay AID248 (DTP/NCI, 2004).
“And” between values parts separate entries of the source, which are not always exact repeats. Equal values may be shown once. Inconclusive results and toxic doses are left out. Rule as the data show it: active = T/C of 150% or more; inactive = T/C below 125%.

Tested on: L1210 leukemia ip in BDF1 mice, survival T/C
Experiment: NCI In Vivo Anticancer Drug Screen. Data for tumor model L1210 Leukemia (intraperitoneal) in B6D2F1 (BDF1) mice
Conditions: endpoint: mean survival time, higher = longer survival
Procedure, shortened: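 Mice bearing the transplanted tumor received compound or vehicle. Survival of the treated group was divided by that of the vehicle-treated control group to give the ratio.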

[1] = dose: 100.0 mg/kg/injection, schedule: Q01DX009 (ip), vehicle: saline with Tween-80
[2] = dose: 100.0 mg/kg/injection, schedule: Q04DX003 (ip), vehicle: saline with Tween-80
[3] = dose: 200.0 mg/kg/injection, schedule: Q01DX009 (ip), vehicle: saline with Tween-80
[4] = dose: 200.0 mg/kg/injection, schedule: Q04DX003 (ip), vehicle: saline with Tween-80
[5] = dose: 400.0 mg/kg/injection, schedule: Q01DX009 (ip), vehicle: saline with Tween-80
[6] = dose: 400.0 mg/kg/injection, schedule: Q04DX003 (ip), vehicle: saline with Tween-80
[7] = dose: 75.0 mg/kg/injection, schedule: Q01DX001 (ip), vehicle: saline
[8] = dose: 100.0 mg/kg/injection, schedule: Q01DX001 (ip), vehicle: saline
[9] = dose: 100.0 mg/kg/injection, schedule: Q01DX009 (ip), vehicle: saline
[10] = dose: 100.0 mg/kg/injection, schedule: Q04DX003 (ip), vehicle: saline
[11] = dose: 200.0 mg/kg/injection, schedule: Q01DX009 (ip), vehicle: saline
[12] = dose: 200.0 mg/kg/injection, schedule: Q04DX003 (ip), vehicle: saline
[13] = dose: 400.0 mg/kg/injection, schedule: Q01DX009 (ip), vehicle: saline
[14] = dose: 400.0 mg/kg/injection, schedule: Q04DX003 (ip), vehicle: saline
[15] = dose: 100.0 mg/kg/injection, schedule: Q04DX002 (ip), vehicle: gum acacia
[16] = dose: 25.0 mg/kg/injection, schedule: Q01DX009 (ip), vehicle: water
[17] = dose: 50.0 mg/kg/injection, schedule: Q01DX009 (ip), vehicle: water

Measured: T/C

CC(=N)Oc1ccccc1
inactive: dose: 75.0 mg/kg/injection, schedule: Q01DX001 (ip), vehicle: Klucel (hydroxypropylcellulose) (HPC) 101 % of control | dose: 150.0 mg/kg/injection, schedule: Q01DX001 (ip), vehicle: Klucel (hydroxypropylcellulose) (HPC) 106 % of control | dose: 300.0 mg/kg/injection, schedule: Q01DX001 (ip), vehicle: Klucel (hydroxypropylcellulose) (HPC) 102 % of control

Cc1cc(OS(C)(=O)=O)ccc1OS(C)(=O)=O
inactive: [1] 94 % of control | [2] 98 % of control | [3] 94 % of control | [4] 94 % of control | [5] 92 % of control | [6] 98 % of control

O=C(CN(CCO)CCO)c1ccc([N+](=O)[O-])cc1
inactive: [7] 101 % of control

OCC1OC(CO)(c2ccccc2O)C(O)C1O (stereo unspecified) (tested in a mixture with another compound)
inactive: [8] 95 % of control | dose: 200.0 mg/kg/injection, schedule: Q01DX001 (ip), vehicle: saline 97 % of control | dose: 400.0 mg/kg/injection, schedule: Q01DX001 (ip), vehicle: saline 92 % of control

O=C1C(F)=C(N2CC2)C(=O)C(N2CCOCC2)=C1N1CC1
inactive: dose: 0.39 mg/kg/injection, schedule: Q04DX003 (ip), vehicle: saline 94 % of control and 108 % of control | dose: 0.75 mg/kg/injection, schedule: Q01DX009 (ip), vehicle: saline 114 % of control and 122 % of control | dose: 0.78 mg/kg/injection, schedule: Q04DX003 (ip), vehicle: saline 100 % of control | dose: 1.5 mg/kg/injection, schedule: Q01DX009 (ip), vehicle: saline 111 % of control | dose: 1.56 mg/kg/injection, schedule: Q04DX003 (ip), vehicle: saline 102 % of control and 112 % of control | dose: 3.0 mg/kg/injection, schedule: Q01DX009 (ip), vehicle: saline 110 % of control and 112 % of control | dose: 3.12 mg/kg/injection, schedule: Q01DX001 (ip), vehicle: saline 91 % of control | dose: 3.12 mg/kg/injection, schedule: Q04DX003 (ip), vehicle: saline 105 % of control and 107 % of control | dose: 6.0 mg/kg/injection, schedule: Q01DX009 (ip), vehicle: saline 111 % of control | dose: 6.25 mg/kg/injection, schedule: Q01DX001 (ip), vehicle: saline 104 % of control | dose: 6.25 mg/kg/injection, schedule: Q04DX003 (ip), vehicle: saline 105 % of control and 121 % of control | dose: 12.5 mg/kg/injection, schedule: Q01DX001 (ip), vehicle: saline 92 % of control

CC(O)c1cccc(Br)c1 (stereo unspecified)
inactive: dose: 100.0 mg/kg/injection, schedule: Q04DX002 (ip), vehicle: saline with Tween-80 100 % of control | dose: 200.0 mg/kg/injection, schedule: Q04DX002 (ip), vehicle: saline with Tween-80 90 % of control | dose: 400.0 mg/kg/injection, schedule: Q04DX002 (ip), vehicle: saline with Tween-80 90 % of control

Nc1ccc(C(=O)O)cc1S(=O)(=O)O
inactive: dose: 100.0 mg/kg/injection, schedule: Q01DX001 (ip), vehicle: Klucel (hydroxypropylcellulose) (HPC) 102 % of control

C/C(=N/OC(=O)N(C)C)c1ccccc1
inactive: dose: 100.0 mg/kg/injection, schedule: Q01DX001 (ip), vehicle: carboxymethylcellulose (CMC) 104 % of control | dose: 200.0 mg/kg/injection, schedule: Q01DX001 (ip), vehicle: carboxymethylcellulose (CMC) 101 % of control | dose: 400.0 mg/kg/injection, schedule: Q01DX001 (ip), vehicle: carboxymethylcellulose (CMC) 90 % of control

O=C1OC(=O)C23CCC(CC2)C2CCC13CC2
inactive: [9] 97 % of control | [10] 110 % of control | [11] 98 % of control | [12] 110 % of control | [13] 93 % of control | [14] 109 % of control

CCCCN(CCCC)CC(O)c1cc(-c2ccccc2)nc2c(N)cccc12 (stereo unspecified)
inactive: [7] 98 % of control | dose: 150.0 mg/kg/injection, schedule: Q01DX001 (ip), vehicle: saline 100 % of control | dose: 300.0 mg/kg/injection, schedule: Q01DX001 (ip), vehicle: saline 96 % of control

CC1(C)C2(C)CC12C (stereo unspecified)
inactive: dose: 2.5 mg/kg/injection, schedule: Q01DX009 (ip), vehicle: saline 92 % of control | dose: 5.0 mg/kg/injection, schedule: Q01DX009 (ip), vehicle: saline 91 % of control | dose: 10.0 mg/kg/injection, schedule: Q01DX009 (ip), vehicle: saline 87 % of control

Cc1cccnc1NC(=S)Nc1ccccc1Cl
inactive: [15] 88 % of control | dose: 200.0 mg/kg/injection, schedule: Q04DX002 (ip), vehicle: gum acacia 98 % of control

CC(=O)OCC(C)([N+](=O)[O-])[N+](=O)[O-]
inactive: [1] 93 % of control | [2] 95 % of control | [3] 90 % of control | [4] 101 % of control | [5] 91 % of control | [6] 103 % of control

CC(C)C(C(=O)O)N(C)N=O (stereo unspecified)
inactive: dose: 50.0 mg/kg/injection, schedule: Q04DX003 (ip), vehicle: saline 94 % of control | dose: 100.0 mg/kg/injection, schedule: Q01DX001 (ip), vehicle: acetone 101 % of control | [10] 97 % of control | dose: 200.0 mg/kg/injection, schedule: Q01DX001 (ip), vehicle: acetone 103 % of control | [12] 94 % of control

CC(/C=N\N)=N\N
inactive: dose: 15.0 mg/kg/injection, schedule: Q01DX Z (ip), vehicle: saline 91 % of control | dose: 15.0 mg/kg/injection, schedule: Q01DX Z (oral), vehicle: saline 101 % of control | dose: 30.0 mg/kg/injection, schedule: Q01DX Z (ip), vehicle: saline 108 % of control | dose: 30.0 mg/kg/injection, schedule: Q01DX Z (oral), vehicle: saline 116 % of control | dose: 60.0 mg/kg/injection, schedule: Q01DX Z (ip), vehicle: saline 91 % of control

CC(=O)/C=C(\C)OB(F)F
inactive: dose: 50.0 mg/kg/injection, schedule: Q01DX001 (ip), vehicle: saline 98 % of control | [8] 95 % of control

COc1ccc(/C=C/C(=N\O)c2ccc(OC)c(OC)c2)cc1OC
inactive: dose: 25.0 mg/kg/injection, schedule: Q01DX009 (ip), vehicle: saline 86 % of control | dose: 50.0 mg/kg/injection, schedule: Q01DX009 (ip), vehicle: saline 98 % of control | [9] 98 % of control | [11] 100 % of control | [13] 98 % of control

CN(C)Cc1cccc(N)c1
inactive: dose: 12.5 mg/kg/injection, schedule: Q01DX009 (ip), vehicle: water 102 % of control | [16] 100 % of control | dose: 25.0 mg/kg/injection, schedule: Q04DX003 (ip), vehicle: water 104 % of control | [17] 100 % of control | dose: 50.0 mg/kg/injection, schedule: Q04DX003 (ip), vehicle: water 95 % of control | dose: 100.0 mg/kg/injection, schedule: Q04DX003 (ip), vehicle: water 96 % of control and 102 % of control

CCCCCCCCC(N)C(=O)O (stereo unspecified)
inactive: dose: 25.0 mg/kg/injection, schedule: Q04DX002 (ip), vehicle: gum acacia 107 % of control | dose: 50.0 mg/kg/injection, schedule: Q04DX002 (ip), vehicle: Klucel (hydroxypropylcellulose) (HPC) 91 % of control | dose: 50.0 mg/kg/injection, schedule: Q04DX002 (ip), vehicle: gum acacia 95 % of control | dose: 100.0 mg/kg/injection, schedule: Q04DX002 (ip), vehicle: Klucel (hydroxypropylcellulose) (HPC) 98 % of control | [15] 114 % of control | dose: 200.0 mg/kg/injection, schedule: Q04DX002 (ip), vehicle: Klucel (hydroxypropylcellulose) (HPC) 95 % of control

COC(=O)C1(C(=O)OC)CCC=CC1=O
inactive: [1] 107 % of control | [2] 97 % of control | [3] 93 % of control | [4] 101 % of control | [5] 109 % of control | [6] 106 % of control

N=C(N)c1ccc(C(=N)N)cc1
inactive: [16] 95 % of control | [17] 95 % of control and 99 % of control | dose: 100.0 mg/kg/injection, schedule: Q01DX009 (ip), vehicle: water 97 % of control and 103 % of control

CC1C2CCC(C2)C1CO (stereo unspecified)
inactive: [10] 97 % of control | [12] 101 % of control | [14] 101 % of control

CC(=O)SCC(C)CCl (stereo unspecified)
inactive: [10] 102 % of control | [12] 107 % of control | [14] 104 % of control
